Results published in US20220275274A1, “NEUTRAL FLUORESCENT MITOCHONDRIAL MARKER BASED ON NITROGEN-CONTAINING HETEROCYCLE, PREPARATION METHOD AND USE THEREOF” (SOOCHOW UNIVERSITY, priority 2020, published 2022).

How the values were obtained:
[1] = ultraviolet absorption and fluorescence emission in chloroform; format: physicochemical; conditions: 10 μM; for maximum emission wavelength (fluorescence spectrum): excitation wavelength and slit width per dye
Procedure: The ultraviolet absorption and fluorescence emission of the dyes prepared in the examples and comparative examples (at a concentration of 10 μM) in chloroform were tested. The horizontal ordinate is the wavelength, and the vertical ordinate is the absorbance and fluorescence intensity, respectively.
In the ultraviolet-visible absorption spectrum, dye 1a has the maximum absorption at 378 nm; and in the fluorescence spectrum, dye 1a has the highest fluorescence intensity at 452 nm, where the excitation wavelength is 370 nm, and the slit width is 3 nm/1.5 nm. In the ultraviolet-visible absorption spectrum, dye 1b has a maximum absorption wavelength of 382 nm; and in the fluorescence spectrum, dye 1b has a maximum emission wavelength of 485 nm, where the excitation wavelength is 374 nm, and the slit width is 3 nm/1.5 nm. In the ultraviolet-visible absorption spectrum, dye 1c has a maximum absorption wavelength of 385 nm; and in the fluorescence spectrum, dye 1c has a maximum emission wavelength of 454 nm, where the excitation wavelength is 380 nm, and the slit width is 3 nm/1.5 nm. In the ultraviolet-visible absorption spectrum, dye 2a has the maximum absorption at 364 nm; and in the fluorescence spectrum, dye 2a has the highest fluorescence intensity at 480 nm, where the excitation wavelength is 374 nm, and the slit width is 3 nm/1.5 nm. In the ultraviolet-visible absorption spectrum, dye 2b has a maximum absorption wavelength of 360 nm; and in the fluorescence spectrum, dye 2b has a maximum emission wavelength of 458 nm, where the excitation wavelength is 370 nm, and the slit width is 3 nm/1.5 nm. In the ultraviolet-visible absorption spectrum, dye 2c has a maximum absorption wavelength of 356 nm; and in the fluorescence spectrum, dye 2c has a maximum emission wavelength of 441 nm, where the excitation wavelength is 360 nm, and the slit width is 3 nm/3 nm. In the ultraviolet-visible absorption spectrum, dye 3a has the maximum absorption at 548 nm; and in the fluorescence spectrum, dye 3a has the highest fluorescence intensity at 606 nm, where the excitation wavelength is 560 nm, and the slit width is 1.5 nm/1.5 nm. In the ultraviolet-visible absorption spectrum, dye 3b has a maximum absorption wavelength of 549 nm; and in the fluorescence spectrum, dye 3b has a maximum emission wavelength of 608 nm, where the excitation wavelength is 540 nm, and the slit width is 1.5 nm/1.5 nm. In the ultraviolet-visible absorption spectrum, dye 3c has a maximum absorption wavelength of 554 nm; and in the fluorescence spectrum, dye 3c has a maximum emission wavelength of 611 nm, where the excitation wavelength is 540 nm, and the slit width is 1.5 nm/1.5 nm. In the ultraviolet-visible absorption spectrum, dye 3d has a maximum absorption wavelength of 556 nm; and in the fluorescence spectrum, dye 3d has a maximum emission wavelength of 619 nm, where the excitation wavelength is 570 nm, and the slit width is 1.5 nm/1.5 nm. In the ultraviolet-visible absorption spectrum, dye 4 has a maximum absorption wavelength of 501 nm; and in the fluorescence spectrum, dye 4 has a maximum emission wavelength of 515 nm, where the excitation wavelength is 495 nm, and the slit width is 1.5 nm/1.5 nm. The above UV absorption and fluorescence emission test methods are conventional methods.

[2] = test system: HeLa cells; assay: cell imaging, colocalization with red mitochondrial marker Mito Tracker Red CMXRos; format: cell-based; conditions: dye 1 μM, vs Mito Tracker Red CMXRos (100 nm); for colocalization coefficient: blue and red channel
Procedure: (§1) Dye 1a was formulated into a mother liquor in DMSO (dimethyl sulfoxide), and then added to a conventional cell culture medium to give a concentration of dye 1a in the cell culture medium of 1 μM. L929 cells and HeLa cells were respectively co-cultured for 10 min in an incubator at saturated humidity, 37° C., and 5% CO2 (the experiment was same below). The existing red mitochondrial marker Mito Tracker® Red CMXRos (100 nm) was added, and the cells were co-incubated for another 10 min, washed three times with a PBS buffer, and imaged under a laser confocal microscope. In the blue channel, light of 405 nm was used for excitation, and a fluorescence signal in the range of 410-500 nm was collected; and in the red channel, light of 561 nm was used for excitation, and a fluorescence signal in the range of 570-750 nm was collected. […] The results are shown in FIG. 14, where (a) and (g) are the bright-field images; (b) and (h) are the cell images with dye 1a; (c) and (i) are the cell images with the red mitochondrial marker; (d) and (j) are overlapped images with blue channel and red channel, (e) and (k) show the fluorescence intensity of the ROI line in the overlapped images; and (f) and (1) show colocalization assays, with a colocalization coefficient of 0.90 (L929) and 0.84 (HeLa) respectively.
(§2) The experiment method with dye 1b, dye 1c, dye 2a, dye 2b, and dye 2c (1 μM) is the same as that with dye 1a above, except that dye 1a is replaced. In FIG. 15, (a) and (g) are the bright-field images; (b) and (h) are the cell images with dye 1b; (c) and (i) are the cell images with the red mitochondrial marker; (d) and (j) are overlapped images with blue channel and red channel, (e) and (k) show the fluorescence intensity of the ROI line in the overlapped images; and (f) and (1) show colocalization assays, with a colocalization coefficient of 0.81 (L929) and 0.83 (HeLa) respectively. In FIG. 16, (a) and (g) are the bright-field images; (b) and (h) are the cell images with dye 1c; (c) and (i) are the cell images with the red mitochondrial marker; (d) and (j) are overlapped images with blue channel and red channel, (e) and (k) show the fluorescence intensity of the ROI line in the overlapped images; and (f) and (1) show a colocalization assay, both having a colocalization coefficient of 0.77. In FIG. 17, (a) and (g) are the bright-field images; (b) and (h) are the cell images with dye 2a; (c) and (i) are the cell images with the red mitochondrial marker; (d) and (j) are overlapped images with blue channel and red channel, (e) and (k) show the fluorescence intensity of the ROI line in the overlapped images; and (f) and (1) show colocalization assays, with a colocalization coefficient of 0.79 (L929) and 0.80 (HeLa) respectively. In FIG. 18, (a) and (g) are the bright-field images; (b) and (h) are the cell images with dye 2b; (c) and (i) are the cell images with the red mitochondrial marker; (d) and (j) are overlapped images with blue channel and red channel, (e) and (k) show the fluorescence intensity of the ROI line in the overlapped images; and (f) and (1) show colocalization assays, with a colocalization coefficient of 0.85 (L929) and 0.79 (HeLa) respectively. In FIG. 19, (a) and (g) are the bright-field images; (b) and (h) are the cell images with dye 2c; (c) and (i) are the cell images with the red mitochondrial marker; (d) and (j) are overlapped images with blue channel and red channel, (e) and (k) show the fluorescence intensity of the ROI line in the overlapped images; and (f) and (1) show colocalization assays, with a colocalization coefficient of 0.82 (L929) and 0.84 (HeLa) respectively.
Dye 4 was formulated into a mother liquor in DMSO, and then added to a conventional cell culture medium to give a concentration of dye 4 in the cell culture medium of 1 μM. HeLa cells were co-cultured for 10 min in an incubator at saturated humidity, 37° C., and 5% CO2. […]

[3] = test system: L929 cells; assay: as above; format: cell-based; conditions: dye 1 μM; for mitochondria labeling ability (blue mitochondrial marker): L929 (normal) and HeLa (cancer) cells, vs Mito Tracker Red CMXRos; for colocalization coefficient: L929 cells, vs Mito Tracker Red CMXRos (100 nm), blue and red channel
Procedure: as §1, §2

Compound	maximum absorption wavelength (ultraviolet-visible absorption spectrum) [1]	maximum emission wavelength (fluorescence spectrum) [1]	colocalization coefficient [2]	mitochondria labeling ability (blue mitochondrial marker) [3]	colocalization coefficient [3]	overlap with the red mitochondrial marker ([2]; green and red channel)
CCN(CC)c1ccc2c(C)c(-c3cnc4[nH]ncc4c3)c(=O)oc2c1 [dye 1c]	385 nm	454 nm	0.77	mitochondria labeling ability in both normal cells and cancer cells	0.77	
CCN(CC)c1ccc2c(C)c(-c3ccc4[nH]ncc4c3)c(=O)oc2c1 [dye 1a]	378 nm	452 nm	0.84	mitochondria labeling ability in both normal cells and cancer cells	0.90	
CCN(CC)c1ccc2c(C)c(-c3cnc4[nH]ccc4c3)c(=O)oc2c1 [dye 1b]	382 nm	485 nm	0.83	mitochondria labeling ability in both normal cells and cancer cells	0.81	

Further lines, with some results ahead:

maximum absorption wavelength (ultraviolet-visible absorption spectrum) [1]	maximum emission wavelength (fluorescence spectrum) [1]	Compound	colocalization coefficient [2]	mitochondria labeling ability (blue mitochondrial marker) [3]	colocalization coefficient [3]	overlap with the red mitochondrial marker ([2]; green and red channel)
356 nm	441 nm	CCCCN1C(=O)c2cccc3c(-c4cnc5[nH]ncc5c4)ccc(c23)C1=O [dye 2c]	0.84	mitochondria labeling ability in both normal cells and cancer cells	0.82	
501 nm	515 nm	CC1=CC(C)=[N+]2C1=C(c1ccc(-c3ccc4[nH]ncc4c3)cc1)c1c(C)cc(C)n1[B-]2(F)F [dye 4]				cannot be overlapped well with the red mitochondrial marker
364 nm	480 nm	CCCCN1C(=O)c2cccc3c(-c4ccc5[nH]ncc5c4)ccc(c23)C1=O [dye 2a]	0.80	mitochondria labeling ability in both normal cells and cancer cells	0.79	
360 nm	458 nm	CCCCN1C(=O)c2cccc3c(-c4cnc5[nH]ccc5c4)ccc(c23)C1=O [dye 2b]	0.79	mitochondria labeling ability in both normal cells and cancer cells	0.85	
